In US20110092367A1, “Herbicidal Compositions Comprising 4-amino-3,6-dichloropyridine-2-carboxylic Acid” (BASF SE, priority 2008, published 2011):

How the values were obtained:
Type in all cases: in vivo
Papaver rhoeas [1] = experiment: Greenhouse trial, post-emergence: PAPRH
Procedure: (§1) The test plants have been seeded, separately for each species, in plastic containers in sandy loamy soil containing 5% organic matter.
(§2) For the post emergence treatment, the plants were first grown to the 2 leaf station (GS 12). Here, the herbicidal compositions were suspended or emulsified in water as distribution medium and sprayed using finely distributing nozzels.
(§3) The plants have been cultivated due to there individual requirements at 10-25° C. and 20-35° C. The plants were irrigated due to there necessity. […]
(§4) The evaluation for the damage on undesired weeds caused by the chemical compositions was carried out using a scale from 0 to 100%, compared to the untreated control plants. Here, 0 means no damage and 100 means complete destruction of the plants.
(§5) Calculation of expected activity of binary mixtures was done by using the Colby-Formula according to Example 1.

Mercurialis annua = experiment: Greenhouse trial, post-emergence: MERAN; conditions: for % activity 28 DAT: MERAN
Procedure: as §1, §2, §3, §4, §5

Centauria cyanus = experiment: Greenhouse trial, post-emergence: CENCY; conditions: post-emergence; for % activity 28 DAT: CENCY
Procedure: as §1, §2, §3, §4, §5

Capsella bursa-pasturis = experiment: Greenhouse trial, post-emergence: CAPBP; conditions: post-emergence (Table 10)
Procedure: as §1, §2, §3, §4, §5

Lamium purpureum = experiment: Greenhouse trial, post-emergence: LAMPU; conditions: for % activity 28 DAT: LAMPU
Procedure: as §1, §2, §3, §4, §5

Alopecurus myosuroides = experiment: Field trial Example 2, combined application: ALOMY; conditions: Metazachlor 500 g ai/ha solo, 28 DAT
Procedure: (§6) Aminiopyralid was used as commercial aquaeous solution having an active ingredient concentration of 240 g/l (Milestone™). Metazachlor was used as a commercial suspension concentrate having an active ingredient concentration of 500 g/l (Butisan S®).
as §4
(§7) The value E, which is to be expected if the activity of the individual compounds is just additive, was calculated using the method of S. R. Colby (1967) “Calculating synergistic and antagonistic responses of herbicide combinations”, Weeds 15, p. 22 ff.
(§8) The performance of aminopyralid, applied as an alone treatment at […] and 15 g ai/ha, and the performance of metazachlor, applied as an alone treatment at 375 and 500 g ai/ha, as well as the mixtures of the both compounds have been assessed in winter oilseed rape field trials. The trials have been conducted in Germany at two locations.
(§9) Post emergence treatment was applied by means of fine distributed nozzels at the growth stage (GS/BBCH 11/12).

Anthemis arvensis = experiment: Field trial Example 2, combined application: ANTAR
Procedure: as §6, §4, §7, §8, §9

Centaurea cyanus = experiment: Field trial Example 2, combined application: CENCY; conditions: Metazachlor 375 g ai/ha solo, 78 DAT
Procedure: as §6, §4, §7, §8, §9

Matricaria inodora = experiment: Field trial Example 2, combined application: MATIN
Procedure: as §6, §4, §7, §8, §9

Papaver rhoeas [2] = experiment: Field trial Example 2, combined application: PAPRH
Procedure: as §6, §4, §7, §8, §9

Stellaria media [3] = experiment: Field trial Example 2, combined application: STEME; conditions: Metazachlor 500 g ai/ha solo, 28 DAT
Procedure: as §6, §4, §7, §8, §9

Matricaria chamomilla = experiment: Greenhouse trial, post-emergence: MATCH; conditions: solo, 187 g ai/ha, greenhouse
Procedure: as §1, §2
The plants have been cultivated due to there individual requirements at 10-25° C. and 20-35° C. The plants were irrigated due to there necessity.
In the following experiments, the herbicidal activity for the individual herbicide compounds (solo and mixture applications), the herbicidal succession was assessed 14 days after treatment (DAT).
as §4, §5
E=(X+Y+Z)−(X*Y+X*Z+Y*Z/100)+(X*Y*Z/1000)
Tables 6 to 10 relate to the herbicidal activity, in greenhouse trials, of the individual actives and the combination in post-emergence application 14 DAT.

Stellaria media [4] = experiment: Greenhouse trial, post-emergence: STEME; conditions: flufenacet 60 g ai/ha solo, post-emergence
Procedure: as §1, §2, §3, §4, §5

[5] = pethoxamid 600 g ai/ha solo, post-emergence
[6] = clopyralid 60 g ai/ha solo, post-emergence (Table 10)
[7] = clopyralid 120 g ai/ha solo, post-emergence (Table 10)
[8] = Metazachlor 375 g ai/ha solo, 29 DAT
[9] = Metazachlor 500 g ai/ha solo, 29 DAT
[10] = Metazachlor 375 g ai/ha solo, 28 DAT
[11] = metazachlor 187 g ai/ha solo, post-emergence (Table 10)
[12] = metazachlor 375 g ai/ha solo, post-emergence (Table 10)

## CCOCCN(C(=O)CCl)C(=C(C)C)c1ccccc1 [pethoxamid]
Papaver rhoeas [1]; [5]
  % activity 28 DAT: 25%
Mercurialis annua; pethoxamid 150 g ai/ha solo, post-emergence
  % activity 28 DAT: 0%
Mercurialis annua; pethoxamid 300 g ai/ha solo, post-emergence
  % activity 28 DAT: 0%
Mercurialis annua; [5]
  % activity 28 DAT: 10%
Centauria cyanus; pethoxamid 150 g ai/ha solo
  % activity 28 DAT: 0%
Centauria cyanus; pethoxamid 300 g ai/ha solo
  % activity 28 DAT: 25%
Centauria cyanus; pethoxamid 600 g ai/ha solo
  % activity 28 DAT: 30%

## O=C(O)c1nc(Cl)ccc1Cl [clopyralid]
Capsella bursa-pasturis; clopyralid 120 g ai/ha solo
  % activity 28 DAT: 10%
Lamium purpureum; [6]
  % activity 28 DAT: 15%
Lamium purpureum; [7]
  % activity 28 DAT: 15%
Papaver rhoeas [1]; [7]
  % activity 28 DAT: 20%
Mercurialis annua; [6]
  % activity 28 DAT: 15%

## Cc1cccc(C)c1N(Cn1cccn1)C(=O)CCl [metazachlor]
Alopecurus myosuroides
  % activity: 82%
Anthemis arvensis; [8]
  % activity: 40%
Anthemis arvensis; [9]
  % activity: 57%
Anthemis arvensis; Metazachlor 500 g ai/ha solo, 78 DAT
  % activity: 60%
Centaurea cyanus
  % activity: 32%
Matricaria inodora; [10]
  % activity: 42%
Matricaria inodora; [8]
  % activity: 88%
Matricaria inodora; Metazachlor 500 g ai/ha solo, 28 DAT
  % activity: 67%
Papaver rhoeas [2]; [10]
  % activity: 50%
Papaver rhoeas [2]; [8]
  % activity: 55%
Papaver rhoeas [2]; Metazachlor 375 g ai/ha solo, 72 DAT
  % activity: 53%
Papaver rhoeas [2]; Metazachlor 375 g ai/ha solo, 78 DAT
  % activity: 55%
Papaver rhoeas [2]; [9]
  % activity: 75%
Stellaria media [3]
  % activity: 88%
Capsella bursa-pasturis; metazachlor 375 g ai/ha solo
  % activity 28 DAT: 25%
Lamium purpureum; [11]
  % activity 28 DAT: 75%
Lamium purpureum; [12]
  % activity 28 DAT: 75%
Lamium purpureum; Lamium purpureum, 672 h, solo, 187 g ai/ha, post-emergence, greenhouse, 28 DAT
  inhibition at 187 g/ha: 75%
Papaver rhoeas [1]; [12]
  % activity 28 DAT: 30%
Mercurialis annua; [11]
  % activity 28 DAT: 15%
Mercurialis annua; Mercurialis annua, 672 h, solo, 187 g ai/ha, post-emergence, greenhouse, 28 DAT
  inhibition at 187 g/ha: 15%
Matricaria chamomilla
  inhibition at 187 g/ha: 10%
Centauria cyanus; 672 h, solo, 187 g ai/ha, greenhouse, 28 DAT
  inhibition at 187 g/ha: 20%

## CC(C)N(C(=O)COc1nnc(C(F)(F)F)s1)c1ccc(F)cc1 [flufenacet]
Lamium purpureum; flufenacet 60 g ai/ha solo, post-emergence
  % activity 28 DAT: 60%
Lamium purpureum; flufenacet 120 g ai/ha solo, post-emergence
  % activity 28 DAT: 60%
Stellaria media [4]
  % activity 28 DAT: 0%
Centauria cyanus; flufenacet 60 g ai/ha solo
  % activity 28 DAT: 0%
Centauria cyanus; flufenacet 120 g ai/ha solo
  % activity 28 DAT: 20%

## COC[C@H](C)N(C(=O)CCl)c1c(C)csc1C [DMTA-P, Dimethenamid-P]
Mercurialis annua; DMTA-P 63 g ai/ha solo, post-emergence
  % activity 28 DAT: 15%
Mercurialis annua; DMTA-P 125 g ai/ha solo, post-emergence
  % activity 28 DAT: 25%
Centauria cyanus; DMTA-P 125 g ai/ha solo
  % activity 28 DAT: 20%
